# From patent US10004701B2, “Methods and compositions for treating infection” (UNIVERSITY OF ROCHESTER, priority 2012, dated 2018)
# Where a name gives a salt, the structure may show the parent alone. Read-outs that look alike come from different tables or passages of the source.
# Experiments:
# Test in all cases: AK assay 384-well format, Prestwick library screening
# E. cloacae = assay type: cell-based, Enterobacter cloacae; conditions: 50 μM final drug concentration; for fold induction at 50 µM: Enterobacter cloacae, 3 h
# [1] = tested on: A. baumannii strain 98-37-09; assay type: cell-based, Acinetobacter baumannii; conditions: 50 μM final drug concentration; for fold induction at 50 µM: Acinetobacter baumannii, 983709, 3 h
# E. coli = assay type: cell-based, Escherichia coli; conditions: 50 μM final drug concentration; for fold induction at 50 µM: Escherichia coli, 3 h
# K. pneumoniae = assay type: cell-based, Klebsiella pneumoniae; conditions: 50 μM final drug concentration; for fold induction at 50 µM: Klebsiella pneumoniae, 3 h
# P. aeruginosa = assay type: cell-based, Pseudomonas aeruginosa; conditions: 50 μM final drug concentration; for fold induction at 50 µM: Pseudomonas aeruginosa, 3 h
# [2] = tested on: S. aureus strain USA300-0114; assay type: cell-based, Staphylococcus aureus; conditions: 50 μM final drug concentration; for fold induction at 50 µM: Staphylococcus aureus, USA300, 3 h
# E. faecium = assay type: cell-based, Enterococcus faecium; conditions: 50 μM final drug concentration; for fold induction at 50 µM: Enterococcus faecium, 3 h
# [3] = planktonic E. cloacae, 384-well, cutoff for positive-scoring molecules 3-fold increase, read-out: AK-based Prestwick Library Screening Results: E. cloacae (increase in extracellular AK activity)
# [4] = planktonic A. baumannii, 384-well, cutoff for positive-scoring molecules 3-fold increase, read-out: AK-based Prestwick Library Screening Results: A. baumannii (increase in extracellular AK activity)
# [5] = planktonic E. coli, 384-well, cutoff for positive-scoring molecules 3-fold increase, read-out: AK-based Prestwick Library Screening Results: E. coli (increase in extracellular AK activity)
# [6] = planktonic K. pneumoniae, 384-well, cutoff for positive-scoring molecules 3-fold increase, read-out: AK-based Prestwick Library Screening Results: K. pneumoniae (increase in extracellular AK activity)
# [7] = planktonic P. aeruginosa, 384-well, cutoff for positive-scoring molecules 3-fold increase, read-out: AK-based Prestwick Library Screening Results: P. aeruginosa (increase in extracellular AK activity)
# [8] = planktonic S. aureus, 384-well, cutoff for positive-scoring molecules 3-fold increase, read-out: AK-based Prestwick Library Screening Results: S. aureus (increase in extracellular AK activity)
# [9] = planktonic E. faecium, 384-well, cutoff for positive-scoring molecules 3-fold increase, read-out: AK-based Prestwick Library Screening Results: E. faecium (increase in extracellular AK activity)
# [10] = planktonic E. cloacae, positive cutoff 3-fold increase, read-out: AK-based Prestwick library screening result, E. cloacae (fold increase in extracellular AK activity)
# [11] = planktonic A. baumannii, positive cutoff 3-fold increase, read-out: AK-based Prestwick library screening result, A. baumannii (fold increase in extracellular AK activity)
# [12] = planktonic E. coli, positive cutoff 3-fold increase, read-out: AK-based Prestwick library screening result, E. coli (fold increase in extracellular AK activity)
# [13] = planktonic K. pneumoniae, positive cutoff 3-fold increase, read-out: AK-based Prestwick library screening result, K. pneumoniae (fold increase in extracellular AK activity)
# [14] = planktonic P. aeruginosa, positive cutoff 3-fold increase, read-out: AK-based Prestwick library screening result, P. aeruginosa (fold increase in extracellular AK activity)
# [15] = planktonic S. aureus, positive cutoff 3-fold increase, read-out: AK-based Prestwick library screening result, S. aureus (fold increase in extracellular AK activity)
# [16] = planktonic E. faecium, positive cutoff 3-fold increase, read-out: AK-based Prestwick library screening result, E. faecium (fold increase in extracellular AK activity)
# [17] = 384-well format, cutoff for positive-scoring molecules 3-fold increase, read-out: AK-based Prestwick Library Screening Results, E. cloacae (increase in extracellular AK activity)
# [18] = 384-well format, cutoff for positive-scoring molecules 3-fold increase, read-out: AK-based Prestwick Library Screening Results, A. baumannii (increase in extracellular AK activity)
# [19] = 384-well format, cutoff for positive-scoring molecules 3-fold increase, read-out: AK-based Prestwick Library Screening Results, E. coli (increase in extracellular AK activity)
# [20] = 384-well format, cutoff for positive-scoring molecules 3-fold increase, read-out: AK-based Prestwick Library Screening Results, K. pneumoniae (increase in extracellular AK activity)
# [21] = 384-well format, cutoff for positive-scoring molecules 3-fold increase, read-out: AK-based Prestwick Library Screening Results, P. aeruginosa (increase in extracellular AK activity)
# [22] = 384-well format, cutoff for positive-scoring molecules 3-fold increase, read-out: AK-based Prestwick Library Screening Results, S. aureus (increase in extracellular AK activity)
# [23] = 384-well format, cutoff for positive-scoring molecules 3-fold increase, read-out: AK-based Prestwick Library Screening Results, E. faecium (increase in extracellular AK activity)
# [24] = planktonic, cutoff for positive-scoring molecules 3-fold increase
# [25] = planktonic, cutoff for positive 3-fold increase
smiles,measurement,setting,value
CO[C@H]1C[C@H](O[C@H]2[C@H](C)[C@@H](O[C@@H]3O[C@H](C)C[C@H](N(C)C)[C@H]3O)[C@@H](C)C[C@@]3(CO3)C(=O)[C@H](C)[C@@H](O)[C@@H](C)[C@@H](C)OC(=O)[C@@H]2C)O[C@@H](C)[C@@H]1O [Oleandomycin phosphate],fold induction at 50 µM,E. cloacae; [3],1.6
same,fold induction at 50 µM,[1]; [4],1.1
same,fold induction at 50 µM,E. coli; [5],1.1
same,fold induction at 50 µM,K. pneumoniae; [6],1
same,fold induction at 50 µM,P. aeruginosa; [7],1
same,fold induction at 50 µM,[2]; [8],3.6
same,fold induction at 50 µM,E. faecium; [9],1
COc1ccc2[nH]c([S+]([O-])Cc3ncc(C)c(OC)c3C)nc2c1 (stereo not drawn) [Omeprazole],fold induction at 50 µM,"E. cloacae; planktonic E. cloacae, cutoff for positive-scoring molecules 3-fold increase, read-out: AK-based Prestwick Library Screening Results, E. cloacae (increase in extracellular AK activity)",0.8
same,fold induction at 50 µM,"[1]; planktonic A. baumannii, cutoff for positive-scoring molecules 3-fold increase, read-out: AK-based Prestwick Library Screening Results, A. baumannii (increase in extracellular AK activity)",0.8
same,fold induction at 50 µM,"E. coli; planktonic E. coli, cutoff for positive-scoring molecules 3-fold increase, read-out: AK-based Prestwick Library Screening Results, E. coli (increase in extracellular AK activity)",0.7
same,fold induction at 50 µM,"K. pneumoniae; planktonic K. pneumoniae, cutoff for positive-scoring molecules 3-fold increase, read-out: AK-based Prestwick Library Screening Results, K. pneumoniae (increase in extracellular AK activity)",0.6
same,fold induction at 50 µM,"P. aeruginosa; planktonic P. aeruginosa, cutoff for positive-scoring molecules 3-fold increase, read-out: AK-based Prestwick Library Screening Results, P. aeruginosa (increase in extracellular AK activity)",0.6
same,fold induction at 50 µM,"[2]; planktonic S. aureus, cutoff for positive-scoring molecules 3-fold increase, read-out: AK-based Prestwick Library Screening Results, S. aureus (increase in extracellular AK activity)",0.2
same,fold induction at 50 µM,"E. faecium; planktonic E. faecium, cutoff for positive-scoring molecules 3-fold increase, read-out: AK-based Prestwick Library Screening Results, E. faecium (increase in extracellular AK activity)",0.8
Cc1nccn1CC1CCc2c(c3ccccc3n2C)C1=O (stereo not drawn) [Ondansetron Hydrochloride],fold induction at 50 µM,E. cloacae; [10],0.8
same,fold induction at 50 µM,[1]; [11],0.7
same,fold induction at 50 µM,E. coli; [12],0.7
same,fold induction at 50 µM,K. pneumoniae; [13],0.6
same,fold induction at 50 µM,P. aeruginosa; [14],0.7
same,fold induction at 50 µM,[2]; [15],0.6
same,fold induction at 50 µM,E. faecium; [16],1.1
Cc1ncc([N+](=O)[O-])n1CC(O)CCl (stereo not drawn) [Ornidazole],fold induction at 50 µM,E. cloacae; [17],0.6
same,fold induction at 50 µM,[1]; [18],0.6
same,fold induction at 50 µM,E. coli; [19],0.6
same,fold induction at 50 µM,K. pneumoniae; [20],0.5
same,fold induction at 50 µM,P. aeruginosa; [21],0.6
same,fold induction at 50 µM,[2]; [22],0.5
same,fold induction at 50 µM,E. faecium; [23],0.9
CCN(CC)CCc1nc(-c2ccccc2)no1.O=C(O)CC(O)(CC(=O)O)C(=O)O [Oxalamine citrate salt],"AK-based Prestwick Library Screening Results, E. cloacae (fold increase in extracellular AK activity)",E. cloacae; [24],1.2
same,"AK-based Prestwick Library Screening Results, A. baumannii (fold increase in extracellular AK activity)",[1]; [24],0.8
same,"AK-based Prestwick Library Screening Results, E. coli (fold increase in extracellular AK activity)",E. coli; [24],0.9
same,"AK-based Prestwick Library Screening Results, K. pneumoniae (fold increase in extracellular AK activity)",K. pneumoniae; [24],0.7
same,"AK-based Prestwick Library Screening Results, P. aeruginosa (fold increase in extracellular AK activity)",P. aeruginosa; [24],0.9
same,"AK-based Prestwick Library Screening Results, S. aureus (fold increase in extracellular AK activity)",[2]; [24],0.8
same,"AK-based Prestwick Library Screening Results, E. faecium (fold increase in extracellular AK activity)",E. faecium; [24],0.8
CN1CCCN=C1/C=C/c1cccc(O)c1.O=C(O)c1cc2ccccc2c(Cc2c(O)c(C(=O)O)cc3ccccc23)c1O [Oxantel pamoate],"AK-based Prestwick Library Screening Results, E. cloacae (fold increase in extracellular AK activity)",E. cloacae; [25],1.8
same,"AK-based Prestwick Library Screening Results, A. baumannii (fold increase in extracellular AK activity)",[1]; [25],1.1
same,"AK-based Prestwick Library Screening Results, E. coli (fold increase in extracellular AK activity)",E. coli; [25],1.1
same,"AK-based Prestwick Library Screening Results, K. pneumoniae (fold increase in extracellular AK activity)",K. pneumoniae; [25],1.0
same,"AK-based Prestwick Library Screening Results, P. aeruginosa (fold increase in extracellular AK activity)",P. aeruginosa; [25],1.0
same,"AK-based Prestwick Library Screening Results, S. aureus (fold increase in extracellular AK activity)",[2]; [25],1.3
same,"AK-based Prestwick Library Screening Results, E. faecium (fold increase in extracellular AK activity)",E. faecium; [25],1.0
O=C(O)CCc1nc(-c2ccccc2)c(-c2ccccc2)o1 [Oxaprozin],fold induction at 50 µM,E. cloacae; [10],0.9
same,fold induction at 50 µM,[1]; [11],0.7
same,fold induction at 50 µM,E. coli; [12],0.6
same,fold induction at 50 µM,K. pneumoniae; [13],0.6
same,fold induction at 50 µM,P. aeruginosa; [14],0.7
same,fold induction at 50 µM,[2]; [15],0.5
same,fold induction at 50 µM,E. faecium; [16],1.1
CN(C(=O)CN(CCO)CC(=O)N(C)C(C)(C)Cc1ccccc1)C(C)(C)Cc1ccccc1 [Oxethazaine],fold induction at 50 µM,E. cloacae; [3],1.5
same,fold induction at 50 µM,[1]; [4],4.2
same,fold induction at 50 µM,E. coli; [5],1.4
same,fold induction at 50 µM,K. pneumoniae; [6],1.5
same,fold induction at 50 µM,P. aeruginosa; [7],1
same,fold induction at 50 µM,[2]; [8],1
same,fold induction at 50 µM,E. faecium; [9],1
CCn1cc(C(=O)O)c(=O)c2cc3c(cc21)OCO3 [Oxolinic acid],fold induction at 50 µM,E. cloacae; [17],4.3
same,fold induction at 50 µM,[1]; [18],2.3
same,fold induction at 50 µM,E. coli; [19],13.1
same,fold induction at 50 µM,K. pneumoniae; [20],1.6
same,fold induction at 50 µM,P. aeruginosa; [21],1
same,fold induction at 50 µM,[2]; [22],1
same,fold induction at 50 µM,E. faecium; [23],1.1
C=CCOc1ccccc1OCC(O)CNC(C)C (stereo not drawn) [Oxprenolol hydrochloride],fold induction at 50 µM,E. cloacae; [10],0.9
same,fold induction at 50 µM,[1]; [11],0.6
same,fold induction at 50 µM,E. coli; [12],0.7
same,fold induction at 50 µM,K. pneumoniae; [13],0.6
same,fold induction at 50 µM,P. aeruginosa; [14],0.6
same,fold induction at 50 µM,[2]; [15],0.6
same,fold induction at 50 µM,E. faecium; [16],0.9
COc1ccc(C(=O)c2ccccc2)c(O)c1 [Oxybenzone],fold induction at 50 µM,"E. cloacae; planktonic, cutoff for positive-scoring molecules 3-fold increase, read-out: AK-based Prestwick Library Screening Results, E. cloacae (fold increase in extracellular AK activity)",0.6
same,fold induction at 50 µM,"[1]; planktonic, cutoff for positive-scoring molecules 3-fold increase, read-out: AK-based Prestwick Library Screening Results, A. baumannii (fold increase in extracellular AK activity)",0.4
same,fold induction at 50 µM,"E. coli; planktonic, cutoff for positive-scoring molecules 3-fold increase, read-out: AK-based Prestwick Library Screening Results, E. coli (fold increase in extracellular AK activity)",0.5
same,fold induction at 50 µM,"K. pneumoniae; planktonic, cutoff for positive-scoring molecules 3-fold increase, read-out: AK-based Prestwick Library Screening Results, K. pneumoniae (fold increase in extracellular AK activity)",0.4
same,fold induction at 50 µM,"P. aeruginosa; planktonic, cutoff for positive-scoring molecules 3-fold increase, read-out: AK-based Prestwick Library Screening Results, P. aeruginosa (fold increase in extracellular AK activity)",0.5
same,fold induction at 50 µM,"[2]; planktonic, cutoff for positive-scoring molecules 3-fold increase, read-out: AK-based Prestwick Library Screening Results, S. aureus (fold increase in extracellular AK activity)",0.4
same,fold induction at 50 µM,"E. faecium; planktonic, cutoff for positive-scoring molecules 3-fold increase, read-out: AK-based Prestwick Library Screening Results, E. faecium (fold increase in extracellular AK activity)",0.7
CCN(CC)CC#CCOC(=O)C(O)(c1ccccc1)C1CCCCC1 (stereo not drawn) [Oxybutynin chloride],fold induction at 50 µM,E. cloacae; [3],1.6
same,fold induction at 50 µM,[1]; [4],1.1
same,fold induction at 50 µM,E. coli; [5],1.4
same,fold induction at 50 µM,K. pneumoniae; [6],0.9
same,fold induction at 50 µM,P. aeruginosa; [7],1
same,fold induction at 50 µM,[2]; [8],1.2
same,fold induction at 50 µM,E. faecium; [9],1.1
